Reference: US20180279615A1 (priority 2015, published 2018)

System: Botrytis cinerea
Test: Activity against the grey mold Botrytis cinerea in the microtiterplate test
Assay type: cell-based
Settings: comparative examples, measured at 405 nm 7 days after inoculation

Row | Structure (SMILES) | Growth (%) at 32 ppm [%]
1 | Cc1cc(C2=NC(C)(C)Cc3ccccc32)cnc1C | 51
2 | Cc1cc(C2=NC(C)(C)C(C)c3ccccc32)cnc1C (centres unmarked) [I-1, 1-(5,6-dimethyl-3-pyridyl)-3,3,4-trimethyl-4H-isoquinoline] | 0
